The results in this text go back to ChEMBL document CHEMBL1914443, “Inhibition of c-Kit, VEGFR-2 (KDR), and ABCG2 by analogues of OSI-930” (Bioorg Med Chem Lett, 2011).

The target in assay [1] is Platelet-derived growth factor receptor beta (Homo sapiens) (UniProt P09619). The assay can be described thus: Inhibition of PDGFRbeta using Tyr 04 peptide as substrate at 1 uM after 60 mins by Z'-LYTE assay.
The target in assay [2] is Angiopoietin-1 receptor (Homo sapiens) (UniProt Q02763). The assay can be described thus: Inhibition of Tie-2 using Tyr 05 peptide as substrate at 1 uM after 60 mins by Z'-LYTE assay.
Chain of Angiopoietin-1 receptor (Homo sapiens) (Q02763 whole entry): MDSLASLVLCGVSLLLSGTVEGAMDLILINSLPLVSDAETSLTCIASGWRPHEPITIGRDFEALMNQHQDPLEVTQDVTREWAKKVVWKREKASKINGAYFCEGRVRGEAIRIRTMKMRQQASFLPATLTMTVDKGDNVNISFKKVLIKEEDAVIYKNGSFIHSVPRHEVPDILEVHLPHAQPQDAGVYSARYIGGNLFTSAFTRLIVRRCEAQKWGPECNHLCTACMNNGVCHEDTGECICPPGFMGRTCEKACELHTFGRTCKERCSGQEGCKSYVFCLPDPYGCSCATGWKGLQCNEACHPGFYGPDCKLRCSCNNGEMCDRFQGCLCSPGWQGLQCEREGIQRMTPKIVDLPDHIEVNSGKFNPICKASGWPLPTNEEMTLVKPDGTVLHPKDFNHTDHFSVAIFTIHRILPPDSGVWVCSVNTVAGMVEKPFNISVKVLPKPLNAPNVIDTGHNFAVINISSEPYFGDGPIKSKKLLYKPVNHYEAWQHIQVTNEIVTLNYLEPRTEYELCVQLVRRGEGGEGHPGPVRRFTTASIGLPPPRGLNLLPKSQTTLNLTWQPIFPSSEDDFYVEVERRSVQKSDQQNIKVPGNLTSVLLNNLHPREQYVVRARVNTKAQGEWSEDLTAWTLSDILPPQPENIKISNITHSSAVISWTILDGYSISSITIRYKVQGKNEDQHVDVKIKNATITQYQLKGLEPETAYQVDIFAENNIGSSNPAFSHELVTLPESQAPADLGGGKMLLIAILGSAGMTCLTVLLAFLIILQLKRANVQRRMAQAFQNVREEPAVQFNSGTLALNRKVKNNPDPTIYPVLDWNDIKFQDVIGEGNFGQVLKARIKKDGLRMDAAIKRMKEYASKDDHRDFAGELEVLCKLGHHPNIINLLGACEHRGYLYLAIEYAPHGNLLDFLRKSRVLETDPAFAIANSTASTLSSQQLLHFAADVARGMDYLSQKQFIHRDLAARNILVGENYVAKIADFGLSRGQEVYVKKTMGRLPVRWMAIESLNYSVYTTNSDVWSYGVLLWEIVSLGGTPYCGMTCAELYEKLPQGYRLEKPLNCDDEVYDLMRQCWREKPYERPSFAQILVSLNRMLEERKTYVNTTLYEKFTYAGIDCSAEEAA
Assay [3] has as its target Vascular endothelial growth factor receptor 1 (Homo sapiens) (UniProt P17948). The assay can be described thus: Inhibition of VEGFR1 using Tyr 04 peptide as substrate at 10 uM after 60 mins by Z'-LYTE assay.
The target in assay [4] is Angiopoietin-1 receptor (Homo sapiens) (UniProt Q02763). As to the kind of experiment: Inhibition of Tie-2 using Tyr 05 peptide as substrate at 10 uM after 60 mins by Z'-LYTE assay.
Assay [5] concerns the target Platelet-derived growth factor receptor alpha (Homo sapiens) (UniProt P16234). The assay can be described thus: Inhibition of PDGFRalpha using Tyr 04 peptide as substrate at 10 uM after 60 mins by Z'-LYTE assay.
Assay [6] deals with T1, Mast/stem cell growth factor receptor Kit (Homo sapiens, UniProt P10721). As to the kind of experiment: Inhibition of c-Kit using Tyr 06 peptide as substrate at 10 uM after 60 mins by Z'-LYTE assay.
T1 sequence (P10721 whole entry): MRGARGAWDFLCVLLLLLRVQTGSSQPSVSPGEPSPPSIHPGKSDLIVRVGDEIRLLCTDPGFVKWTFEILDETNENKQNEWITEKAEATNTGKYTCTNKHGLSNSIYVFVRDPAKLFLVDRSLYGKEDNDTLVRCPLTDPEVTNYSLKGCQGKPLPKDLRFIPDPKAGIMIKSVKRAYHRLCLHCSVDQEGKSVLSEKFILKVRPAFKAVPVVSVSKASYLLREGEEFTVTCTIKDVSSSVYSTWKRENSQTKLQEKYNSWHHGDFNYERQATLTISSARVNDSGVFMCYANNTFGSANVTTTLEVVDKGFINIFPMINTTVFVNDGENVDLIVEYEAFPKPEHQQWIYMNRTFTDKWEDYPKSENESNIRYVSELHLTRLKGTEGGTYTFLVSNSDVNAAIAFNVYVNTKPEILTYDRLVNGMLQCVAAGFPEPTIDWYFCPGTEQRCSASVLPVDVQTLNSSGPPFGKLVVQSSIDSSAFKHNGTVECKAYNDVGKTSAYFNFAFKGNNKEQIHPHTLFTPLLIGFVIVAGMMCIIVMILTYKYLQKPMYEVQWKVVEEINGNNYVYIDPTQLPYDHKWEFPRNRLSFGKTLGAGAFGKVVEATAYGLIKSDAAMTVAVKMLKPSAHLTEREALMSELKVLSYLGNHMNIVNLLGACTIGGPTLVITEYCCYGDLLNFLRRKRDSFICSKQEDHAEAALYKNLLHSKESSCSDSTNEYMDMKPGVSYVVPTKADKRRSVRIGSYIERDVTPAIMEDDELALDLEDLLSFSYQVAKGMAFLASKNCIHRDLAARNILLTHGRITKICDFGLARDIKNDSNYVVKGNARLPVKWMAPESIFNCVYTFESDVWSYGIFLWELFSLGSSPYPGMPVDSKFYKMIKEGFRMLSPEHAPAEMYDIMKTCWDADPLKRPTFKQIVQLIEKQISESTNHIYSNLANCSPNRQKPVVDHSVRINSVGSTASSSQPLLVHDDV
Assay [7] concerns the target T1, Mast/stem cell growth factor receptor Kit. As to the kind of experiment: Inhibition of c-Kit using Tyr 06 peptide as substrate at 1 uM after 60 mins by Z'-LYTE assay.
Assay [8] has as its target T2, Vascular endothelial growth factor receptor 2 (Homo sapiens, UniProt P35968). The assay can be described thus: Inhibition of KDR using Tyr 01 peptide as substrate at 1 uM after 60 mins by Z'-LYTE assay.
For assay [9], the target named is Receptor-type tyrosine-protein kinase FLT3 (Homo sapiens) (UniProt P36888). The assay can be described thus: Inhibition of Flt3 using Tyr 02 peptide as substrate at 1 uM after 60 mins by Z'-LYTE assay.
Assay [10] has the same target. As to the kind of experiment: Inhibition of Flt3 using Tyr 02 peptide as substrate at 10 uM after 60 mins by Z'-LYTE assay.
Assay [11] addresses Platelet-derived growth factor receptor beta (Homo sapiens) (UniProt P09619). The assay can be described thus: Inhibition of PDGFRbeta using Tyr 04 peptide as substrate at 10 uM after 60 mins by Z'-LYTE assay.
The target in assay [12] is Vascular endothelial growth factor receptor 3 (Homo sapiens) (UniProt P35916). The assay can be described thus: Inhibition of VEGFR3 using Tyr 04 peptide as substrate at 1 uM after 60 mins by Z'-LYTE assay.
Chain of Vascular endothelial growth factor receptor 3 (Homo sapiens) (P35916 whole entry): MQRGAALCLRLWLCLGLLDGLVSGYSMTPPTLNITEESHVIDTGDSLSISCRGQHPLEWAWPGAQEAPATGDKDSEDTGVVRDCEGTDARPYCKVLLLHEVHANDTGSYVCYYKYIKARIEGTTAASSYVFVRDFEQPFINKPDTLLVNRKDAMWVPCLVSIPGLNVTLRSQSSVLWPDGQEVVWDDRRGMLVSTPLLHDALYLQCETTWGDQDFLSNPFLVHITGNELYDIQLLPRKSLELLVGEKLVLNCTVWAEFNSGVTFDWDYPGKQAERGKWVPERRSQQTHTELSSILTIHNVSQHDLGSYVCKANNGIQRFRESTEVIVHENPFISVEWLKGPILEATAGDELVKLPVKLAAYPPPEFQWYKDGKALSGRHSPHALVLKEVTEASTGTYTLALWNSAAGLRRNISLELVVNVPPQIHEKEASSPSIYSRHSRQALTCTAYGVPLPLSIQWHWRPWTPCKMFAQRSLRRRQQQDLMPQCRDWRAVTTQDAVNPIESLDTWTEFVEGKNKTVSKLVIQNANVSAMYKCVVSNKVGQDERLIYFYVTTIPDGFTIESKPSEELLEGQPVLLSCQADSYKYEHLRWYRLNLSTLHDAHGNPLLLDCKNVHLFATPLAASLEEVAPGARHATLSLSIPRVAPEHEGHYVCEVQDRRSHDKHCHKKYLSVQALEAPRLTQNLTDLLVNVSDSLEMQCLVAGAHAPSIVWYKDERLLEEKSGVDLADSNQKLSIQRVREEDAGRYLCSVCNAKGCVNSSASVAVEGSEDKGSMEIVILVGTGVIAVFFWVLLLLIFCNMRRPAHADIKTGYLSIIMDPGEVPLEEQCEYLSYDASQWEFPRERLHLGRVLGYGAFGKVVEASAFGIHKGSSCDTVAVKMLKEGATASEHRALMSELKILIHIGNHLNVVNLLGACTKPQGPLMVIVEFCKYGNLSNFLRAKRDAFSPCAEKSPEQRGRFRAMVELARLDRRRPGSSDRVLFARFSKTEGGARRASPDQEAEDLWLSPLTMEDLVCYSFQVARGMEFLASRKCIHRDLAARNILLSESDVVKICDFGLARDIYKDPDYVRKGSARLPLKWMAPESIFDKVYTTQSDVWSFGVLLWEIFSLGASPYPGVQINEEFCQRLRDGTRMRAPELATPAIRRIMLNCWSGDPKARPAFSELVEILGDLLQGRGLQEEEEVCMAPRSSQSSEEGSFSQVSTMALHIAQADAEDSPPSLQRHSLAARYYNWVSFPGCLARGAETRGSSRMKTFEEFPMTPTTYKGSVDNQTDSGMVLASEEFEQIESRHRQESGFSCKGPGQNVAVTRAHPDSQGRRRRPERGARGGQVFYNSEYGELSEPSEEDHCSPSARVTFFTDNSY
For assay [13] the target is unchanged. The assay can be described thus: Inhibition of VEGFR3 using Tyr 04 peptide as substrate at 10 uM after 60 mins by Z'-LYTE assay.
Assay [14] deals with Vascular endothelial growth factor receptor 1 (Homo sapiens) (UniProt P17948). As to the kind of experiment: Inhibition of VEGFR1 using Tyr 04 peptide as substrate at 1 uM after 60 mins by Z'-LYTE assay.
Assay [15] addresses Platelet-derived growth factor receptor alpha (Homo sapiens) (UniProt P16234). As to the kind of experiment: Inhibition of PDGFRalpha using Tyr 04 peptide as substrate at 1 uM after 60 mins by Z'-LYTE assay.
Assay [16] addresses T2, Vascular endothelial growth factor receptor 2. As to the kind of experiment: Inhibition of KDR using Tyr 01 peptide as substrate at 10 uM after 60 mins by Z'-LYTE assay.

Chain of Platelet-derived growth factor receptor beta (Homo sapiens) (P09619 whole entry): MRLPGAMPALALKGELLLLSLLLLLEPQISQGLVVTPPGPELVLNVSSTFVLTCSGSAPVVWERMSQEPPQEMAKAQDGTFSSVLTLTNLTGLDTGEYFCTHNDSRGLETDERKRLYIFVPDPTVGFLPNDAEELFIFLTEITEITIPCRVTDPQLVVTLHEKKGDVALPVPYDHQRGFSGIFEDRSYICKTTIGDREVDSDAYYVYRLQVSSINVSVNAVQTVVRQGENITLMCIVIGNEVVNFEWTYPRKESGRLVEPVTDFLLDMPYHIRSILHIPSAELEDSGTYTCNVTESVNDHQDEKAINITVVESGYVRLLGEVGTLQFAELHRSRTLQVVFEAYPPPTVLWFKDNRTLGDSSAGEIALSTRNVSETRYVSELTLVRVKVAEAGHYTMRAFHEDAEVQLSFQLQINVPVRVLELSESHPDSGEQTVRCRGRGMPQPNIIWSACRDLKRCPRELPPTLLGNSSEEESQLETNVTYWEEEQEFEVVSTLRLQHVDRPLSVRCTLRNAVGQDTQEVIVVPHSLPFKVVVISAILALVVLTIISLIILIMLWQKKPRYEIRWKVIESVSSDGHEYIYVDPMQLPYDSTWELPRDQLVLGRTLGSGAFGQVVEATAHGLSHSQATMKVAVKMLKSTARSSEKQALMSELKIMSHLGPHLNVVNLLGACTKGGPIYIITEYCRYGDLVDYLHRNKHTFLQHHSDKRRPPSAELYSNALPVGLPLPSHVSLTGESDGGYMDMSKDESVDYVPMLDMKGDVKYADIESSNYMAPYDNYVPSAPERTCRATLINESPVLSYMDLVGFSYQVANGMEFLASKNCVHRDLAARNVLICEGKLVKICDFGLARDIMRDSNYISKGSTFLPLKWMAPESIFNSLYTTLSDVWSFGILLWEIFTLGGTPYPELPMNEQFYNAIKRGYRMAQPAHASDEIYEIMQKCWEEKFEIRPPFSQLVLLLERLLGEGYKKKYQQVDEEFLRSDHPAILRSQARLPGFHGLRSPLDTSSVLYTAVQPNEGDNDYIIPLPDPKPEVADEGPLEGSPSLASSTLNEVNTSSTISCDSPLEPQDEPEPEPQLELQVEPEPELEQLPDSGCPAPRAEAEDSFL

Broadly, the inhibition is the relative decrease from the control value, in per cent. Consider `Nc1ccc(CNc2ccsc2C(=O)Nc2ccc(OC(F)(F)F)cc2)cc1`, for which the inhibition in [1], in [2], in assay [3], in assay [4], in assay [5] and in assay [6] was less than 40% each time. The inhibition in assay [7], in [8], in assay [9], in assay [10], in assay [11] and in [12] was less than 40% throughout. The inhibition in assay [13], in assay [14], in assay [15] and in assay [16] was less than 40% each time.

For the compound `O=C(Nc1ccc(OC(F)(F)F)cc1)c1sccc1NCc1cccc(N=C=S)c1`, the inhibition in assay [1], in assay [2], in assay [3], in assay [4], in [5] and in assay [6] was less than 40% each time. The inhibition in assay [7], in [8], in assay [9], in assay [10], in [11] and in [12] was less than 40% throughout. Also, the inhibition in assay [13], in assay [14], in assay [15] and in assay [16] was less than 40% each time.

Regarding `O=C(Nc1ccc(OC(F)(F)F)cc1)c1sccc1NCc1ccc(N=C=S)cc1`, the inhibition in [1], in assay [2], in assay [3], in [4], in assay [5] and in [6] was less than 40% throughout. Moreover, the inhibition in assay [7], in assay [8], in assay [9], in assay [10], in [11] and in assay [12] was less than 40% each time. Moreover, the inhibition in assay [13], in assay [14], in assay [15] and in [16] was less than 40% in each case.

Consider `Nc1cnccc1CNc1ccsc1C(=O)Nc1ccc(OC(F)(F)F)cc1`, for which the inhibition came to 91% in [6]; 57% in assay [7]; 50% in [8]; 41% in assay [10]; 47% in assay [11]; 41% in assay [13]. The inhibition in assay [16] was 88%.

On to `O=C(Nc1ccc(OC(F)(F)F)cc1)c1sccc1NCc1ccc(O)cc1`, for which the inhibition was 68% in assay [6]; less than 40% in assay [7]; less than 40% in [8]; 44% in [11]; 54% in assay [16].

Take `CC(=O)Nc1cccc(CNc2ccsc2C(=O)Nc2ccc(OC(F)(F)F)cc2)c1`: the inhibition in [6] was 58%; in [7] it was less than 40%; in [8] it was less than 40%; in assay [16] it was less than 40%.

On to `O=C(CBr)Nc1cccc(CN2C(=O)CN(c3ccc(OC(F)(F)F)cc3)C(=O)c3sccc32)c1`, for which the inhibition in assay [6] is 41%; in assay [7], less than 40%; in assay [8], less than 40%; in [16] it was less than 40%.

For the compound `O=C(Nc1ccc(OC(F)(F)F)cc1)c1sccc1NCc1ccncc1[N+](=O)[O-]`, the inhibition is 80% in [6], less than 40% in assay [7], less than 40% in assay [8] and less than 40% in assay [16].

`CC(=O)Nc1cc(CNc2ccsc2C(=O)Nc2ccc(OC(F)(F)F)cc2)ccn1`: the inhibition in [6] was 102%; in assay [7], 81%; in [8], 101%; in [16] it was 101%.
